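Briefly, cells in 96-well plates were exposed to five compound concentrations for 48 h, and endpoints were estimated by linear interpolation. TGI: total growth inhibition.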
Assays:
Test in all cases: NCI-60 cell line screen, 48 h
NCI-H522 lung = test system: NCI-H522 lung
HCT-116 colon = test system: HCT-116 colon
EKVX NSCLC = test system: EKVX NSCLC
A498 renal = test system: A498 renal
SF-539 CNS = test system: SF-539 CNS
U251 CNS = test system: U251 CNS
LOX IMVI melanoma = test system: LOX IMVI melanoma
OVCAR-4 ovarian = test system: OVCAR-4 ovarian
RPMI-8226 leukemia = test system: RPMI-8226 leukemia
PC-3 prostate = test system: PC-3 prostate
UACC-62 melanoma = test system: UACC-62 melanoma
OVCAR-8 ovarian = test system: OVCAR-8 ovarian
KM12 colon = test system: KM12 colon
HS 578T breast = test system: HS 578T breast
OVCAR-5 ovarian = test system: OVCAR-5 ovarian
HT29 colon = test system: HT29 colon
CAKI-1 renal = test system: CAKI-1 renal
MCF7 breast = test system: MCF7 breast
SK-OV-3 ovarian = test system: SK-OV-3 ovarian
786-0 renal = test system: 786-0 renal
SF-295 CNS = test system: SF-295 CNS
SK-MEL-5 melanoma = test system: SK-MEL-5 melanoma
MOLT-4 leukemia = test system: MOLT-4 leukemia
NCI-H460 lung = test system: NCI-H460 lung
MDA-N = test system: MDA-N
SF-268 CNS = test system: SF-268 CNS
CCRF-CEM leukemia = test system: CCRF-CEM leukemia
SNB-75 CNS = test system: SNB-75 CNS
HCT-15 colon = test system: HCT-15 colon
UACC-257 melanoma = test system: UACC-257 melanoma
NCI-H226 lung = test system: NCI-H226 lung
OVCAR-3 ovarian = test system: OVCAR-3 ovarian
IGROV1 ovarian = test system: IGROV1 ovarian
BT-549 breast = test system: BT-549 breast
SNB-19 CNS = test system: SNB-19 CNS
MDA-MB-435 = test system: MDA-MB-435
ACHN renal = test system: ACHN renal
SW-620 colon = test system: SW-620 colon
M14 melanoma = test system: M14 melanoma
HOP-62 NSCLC = test system: HOP-62 NSCLC
MDA-MB-231 breast = test system: MDA-MB-231 breast
TK-10 renal = test system: TK-10 renal
NCI-H23 lung = test system: NCI-H23 lung
SN12C renal = test system: SN12C renal
MALME-3M melanoma = test system: MALME-3M melanoma
A549 NSCLC = test system: A549 NSCLC
RXF 393 renal = test system: RXF 393 renal
SK-MEL-2 melanoma = test system: SK-MEL-2 melanoma
HL-60(TB) leukemia = test system: HL-60(TB) leukemia
DU-145 prostate = test system: DU-145 prostate
NCI/ADR-RES ovarian = test system: NCI/ADR-RES ovarian
SK-MEL-28 melanoma = test system: SK-MEL-28 melanoma
K-562 leukemia = test system: K-562 leukemia
HCC-2998 colon = test system: HCC-2998 colon
COLO 205 colon = test system: COLO 205 colon
T-47D breast = test system: T-47D breast
HOP-92 NSCLC = test system: HOP-92 NSCLC
UO-31 renal = test system: UO-31 renal

CCCCC(Sc1cc(Cl)c(C)cc1S(=O)(=O)Nc1n[nH]c(N)n1)C(=O)OC (stereo not drawn)
TGI (NCI-H522 lung): > 10 µM
TGI (HCT-116 colon): > 10000 nM
TGI (EKVX NSCLC): > 10 µM
TGI (A498 renal): > 10 µM
TGI (SF-539 CNS): > 10 µM
TGI (U251 CNS): > 10 µM
TGI (LOX IMVI melanoma): > 10000 nM
TGI (OVCAR-4 ovarian): > 10 µM
TGI (RPMI-8226 leukemia): > 10000 nM
TGI (PC-3 prostate): > 10 µM
TGI (UACC-62 melanoma): > 10 µM
TGI (OVCAR-8 ovarian): > 10 µM
TGI (KM12 colon): > 10 µM
TGI (HS 578T breast): > 10 µM
TGI (OVCAR-5 ovarian): > 10 µM
TGI (HT29 colon): > 10 µM
TGI (CAKI-1 renal): > 10 µM
TGI (MCF7 breast): > 10 µM
TGI (SK-OV-3 ovarian): > 10 µM
TGI (786-0 renal): > 10 µM
TGI (SF-295 CNS): > 10 µM
TGI (SK-MEL-5 melanoma): > 10 µM
TGI (MOLT-4 leukemia): > 10 µM
TGI (NCI-H460 lung): > 10 µM
TGI (MDA-N): > 10 µM
TGI (SF-268 CNS): > 10 µM
TGI (CCRF-CEM leukemia): > 10 µM
TGI (SNB-75 CNS): > 10 µM
TGI (HCT-15 colon): > 10 µM
TGI (UACC-257 melanoma): > 10000 nM
TGI (NCI-H226 lung): > 10 µM
TGI (OVCAR-3 ovarian): > 10 µM
TGI (IGROV1 ovarian): > 10 µM
TGI (BT-549 breast): > 10 µM
TGI (SNB-19 CNS): > 10 µM
TGI (MDA-MB-435): > 10 µM
TGI (ACHN renal): > 10 µM
TGI (SW-620 colon): > 10000 nM
TGI (M14 melanoma): > 10 µM
TGI (HOP-62 NSCLC): > 10 µM
TGI (MDA-MB-231 breast): > 10 µM
TGI (TK-10 renal): > 10 µM
TGI (NCI-H23 lung): > 10 µM
TGI (SN12C renal): > 10 µM
TGI (MALME-3M melanoma): > 10 µM
TGI (A549 NSCLC): > 10 µM
TGI (RXF 393 renal): > 10000 nM
TGI (SK-MEL-2 melanoma): > 10 µM
TGI (HL-60(TB) leukemia): > 10 µM
TGI (DU-145 prostate): > 10 µM
TGI (NCI/ADR-RES ovarian): > 10 µM
TGI (SK-MEL-28 melanoma): > 10 µM
TGI (K-562 leukemia): > 10 µM
TGI (HCC-2998 colon): > 10 µM
TGI (COLO 205 colon): > 10 µM
TGI (T-47D breast): > 10 µM

CC(=O)Oc1ccccc1/C=C/C(=O)/C=C/c1ccccc1OC(C)=O
TGI (NCI-H522 lung): 4.69 µM
TGI (HCT-116 colon): 973 nM
TGI (EKVX NSCLC): 9.9 µM
TGI (A498 renal): 4.01 µM
TGI (SF-539 CNS): 3.33 µM
TGI (U251 CNS): 3.18 µM
TGI (LOX IMVI melanoma): 2010 nM
TGI (OVCAR-4 ovarian): 10.2 µM
TGI (HOP-92 NSCLC): 10.7 µM
TGI (RPMI-8226 leukemia): 1840 nM
TGI (UO-31 renal): 3.48 µM
TGI (PC-3 prostate): 5.04 µM
TGI (UACC-62 melanoma): 3.48 µM
TGI (OVCAR-8 ovarian): 5.12 µM
TGI (KM12 colon): 3.06 µM
TGI (HS 578T breast): > 51.9 µM
TGI (OVCAR-5 ovarian): 4.35 µM
TGI (HT29 colon): 4.25 µM
TGI (CAKI-1 renal): 10.4 µM
TGI (MCF7 breast): 4.99 µM
TGI (SK-OV-3 ovarian): 13.6 µM
TGI (786-0 renal): 3.71 µM
TGI (SF-295 CNS): 6.11 µM
TGI (SK-MEL-5 melanoma): 3.45 µM
TGI (MOLT-4 leukemia): 5.71 µM
TGI (NCI-H460 lung): 6.48 µM
TGI (MDA-N): 6.67 µM
TGI (SF-268 CNS): 8.17 µM
TGI (CCRF-CEM leukemia): 12.6 µM
TGI (SNB-75 CNS): 5.95 µM
TGI (HCT-15 colon): 9.34 µM
TGI (UACC-257 melanoma): 2960 nM
TGI (NCI-H226 lung): 3.89 µM
TGI (OVCAR-3 ovarian): 4.23 µM
TGI (IGROV1 ovarian): 4.52 µM
TGI (BT-549 breast): 3.97 µM
TGI (SNB-19 CNS): 6.53 µM
TGI (MDA-MB-435): 5.37 µM
TGI (ACHN renal): 3.62 µM
TGI (SW-620 colon): 2320 nM
TGI (M14 melanoma): 4.45 µM
TGI (HOP-62 NSCLC): 5.32 µM
TGI (MDA-MB-231 breast): 6.08 µM
TGI (TK-10 renal): 10.6 µM
TGI (NCI-H23 lung): 4.61 µM
TGI (SN12C renal): 4.07 µM
TGI (MALME-3M melanoma): 6.11 µM
TGI (A549 NSCLC): 6.37 µM
TGI (RXF 393 renal): 1650 nM
TGI (SK-MEL-2 melanoma): 21.1 µM
TGI (DU-145 prostate): 9.59 µM
TGI (NCI/ADR-RES ovarian): 7.39 µM
TGI (SK-MEL-28 melanoma): 4.09 µM
TGI (K-562 leukemia): 4.53 µM
TGI (HCC-2998 colon): 4.18 µM
TGI (COLO 205 colon): 4.06 µM
TGI (T-47D breast): 34.9 µM

Source: PubChem BioAssay (NCI)
